Active and inactive are the calls of the source. The calls are words filed in the database; no cut-off is given here. Positions of bridges follow the written chain, without caps; N, C: chain ends. Non-standard residues stand in square brackets, D forms with d. Residues, ends and D or L forms follow the SMILES beside them. AllylGly = C=CC[C@H](N)C(=O)O
Experiments:
[1] = target: Nicotinic acetylcholine receptor alpha9/alpha10 (Rattus norvegicus, UniProt P43144+Q9JLB5); test: (§1) Inhibition of rat alpha9alpha10 nAChR expressed in Xenopus oocytes assessed as inhibition of Ach-evoked current after 5 mins by voltage-clamp technique; type: cell-based
Nicotinic acetylcholine receptor alpha9/alpha10, sequence (P43144 whole entry): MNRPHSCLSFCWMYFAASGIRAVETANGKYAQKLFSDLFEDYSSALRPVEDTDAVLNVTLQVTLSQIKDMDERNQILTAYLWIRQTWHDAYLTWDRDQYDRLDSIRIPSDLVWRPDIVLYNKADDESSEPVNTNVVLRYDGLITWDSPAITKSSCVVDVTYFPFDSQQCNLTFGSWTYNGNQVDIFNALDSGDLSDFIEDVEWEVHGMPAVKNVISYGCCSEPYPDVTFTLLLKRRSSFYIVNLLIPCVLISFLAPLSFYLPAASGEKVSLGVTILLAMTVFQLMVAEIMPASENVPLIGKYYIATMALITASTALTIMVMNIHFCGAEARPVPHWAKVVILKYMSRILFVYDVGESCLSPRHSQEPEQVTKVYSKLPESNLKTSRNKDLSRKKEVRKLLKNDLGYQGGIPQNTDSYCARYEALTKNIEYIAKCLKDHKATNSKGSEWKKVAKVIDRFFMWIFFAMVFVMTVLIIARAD
Nicotinic acetylcholine receptor alpha9/alpha10, sequence (Q9JLB5 whole entry): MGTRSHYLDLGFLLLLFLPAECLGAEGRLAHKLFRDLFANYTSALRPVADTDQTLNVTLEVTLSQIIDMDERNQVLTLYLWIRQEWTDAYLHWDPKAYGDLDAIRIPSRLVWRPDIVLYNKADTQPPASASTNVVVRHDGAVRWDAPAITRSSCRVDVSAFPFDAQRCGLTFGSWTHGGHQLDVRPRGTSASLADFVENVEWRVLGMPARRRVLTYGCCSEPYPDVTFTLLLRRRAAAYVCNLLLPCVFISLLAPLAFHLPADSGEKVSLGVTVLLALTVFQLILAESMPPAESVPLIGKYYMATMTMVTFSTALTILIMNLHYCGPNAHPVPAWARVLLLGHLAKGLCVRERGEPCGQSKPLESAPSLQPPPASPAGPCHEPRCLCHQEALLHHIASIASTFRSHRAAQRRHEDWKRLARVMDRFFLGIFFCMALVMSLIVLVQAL

[2] = target: T1, Neuronal acetylcholine receptor subunit alpha-7 (Homo sapiens, UniProt P36544); test: Inhibition of human alpha7 nAChR expressed in Xenopus oocytes assessed as inhibition of Ach-evoked current after 5 mins by voltage-clamp technique; type: cell-based
T1 sequence (P36544 whole entry): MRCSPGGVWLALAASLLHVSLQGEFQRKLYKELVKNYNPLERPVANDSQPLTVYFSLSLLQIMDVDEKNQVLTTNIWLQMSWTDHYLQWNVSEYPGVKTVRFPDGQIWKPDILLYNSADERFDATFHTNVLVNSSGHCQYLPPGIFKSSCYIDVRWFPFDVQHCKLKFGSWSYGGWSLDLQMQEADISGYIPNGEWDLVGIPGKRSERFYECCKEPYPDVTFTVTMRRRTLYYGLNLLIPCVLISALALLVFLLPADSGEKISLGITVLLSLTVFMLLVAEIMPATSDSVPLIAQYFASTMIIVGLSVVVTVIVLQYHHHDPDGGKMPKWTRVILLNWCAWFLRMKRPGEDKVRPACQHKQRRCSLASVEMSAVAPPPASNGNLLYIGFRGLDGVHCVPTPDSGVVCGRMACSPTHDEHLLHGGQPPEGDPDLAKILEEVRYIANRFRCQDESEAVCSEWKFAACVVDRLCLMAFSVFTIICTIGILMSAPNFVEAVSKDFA

[3] = target: T2, Nicotinic acetylcholine receptor alpha9/alpha10 (Rattus norvegicus) (UniProt P43144+Q9JLB5); test: Inhibition of rat alpha9alpha10 nAChR expressed in Xenopus oocytes assessed as inhibition of Ach-evoked current at 3 uM after 5 mins by voltage-clamp technique; type: cell-based
[4] = target: Voltage-dependent N-type calcium channel subunit alpha-1B (Rattus norvegicus) (UniProt Q02294); test: Inhibition of N-type Ca channel in Wistar rat DRG neuron at 1 nM by whole cell patch clamp technique relative to control
Voltage-dependent N-type calcium channel subunit alpha-1B (Rattus norvegicus), sequence (Q02294 whole entry, looked up): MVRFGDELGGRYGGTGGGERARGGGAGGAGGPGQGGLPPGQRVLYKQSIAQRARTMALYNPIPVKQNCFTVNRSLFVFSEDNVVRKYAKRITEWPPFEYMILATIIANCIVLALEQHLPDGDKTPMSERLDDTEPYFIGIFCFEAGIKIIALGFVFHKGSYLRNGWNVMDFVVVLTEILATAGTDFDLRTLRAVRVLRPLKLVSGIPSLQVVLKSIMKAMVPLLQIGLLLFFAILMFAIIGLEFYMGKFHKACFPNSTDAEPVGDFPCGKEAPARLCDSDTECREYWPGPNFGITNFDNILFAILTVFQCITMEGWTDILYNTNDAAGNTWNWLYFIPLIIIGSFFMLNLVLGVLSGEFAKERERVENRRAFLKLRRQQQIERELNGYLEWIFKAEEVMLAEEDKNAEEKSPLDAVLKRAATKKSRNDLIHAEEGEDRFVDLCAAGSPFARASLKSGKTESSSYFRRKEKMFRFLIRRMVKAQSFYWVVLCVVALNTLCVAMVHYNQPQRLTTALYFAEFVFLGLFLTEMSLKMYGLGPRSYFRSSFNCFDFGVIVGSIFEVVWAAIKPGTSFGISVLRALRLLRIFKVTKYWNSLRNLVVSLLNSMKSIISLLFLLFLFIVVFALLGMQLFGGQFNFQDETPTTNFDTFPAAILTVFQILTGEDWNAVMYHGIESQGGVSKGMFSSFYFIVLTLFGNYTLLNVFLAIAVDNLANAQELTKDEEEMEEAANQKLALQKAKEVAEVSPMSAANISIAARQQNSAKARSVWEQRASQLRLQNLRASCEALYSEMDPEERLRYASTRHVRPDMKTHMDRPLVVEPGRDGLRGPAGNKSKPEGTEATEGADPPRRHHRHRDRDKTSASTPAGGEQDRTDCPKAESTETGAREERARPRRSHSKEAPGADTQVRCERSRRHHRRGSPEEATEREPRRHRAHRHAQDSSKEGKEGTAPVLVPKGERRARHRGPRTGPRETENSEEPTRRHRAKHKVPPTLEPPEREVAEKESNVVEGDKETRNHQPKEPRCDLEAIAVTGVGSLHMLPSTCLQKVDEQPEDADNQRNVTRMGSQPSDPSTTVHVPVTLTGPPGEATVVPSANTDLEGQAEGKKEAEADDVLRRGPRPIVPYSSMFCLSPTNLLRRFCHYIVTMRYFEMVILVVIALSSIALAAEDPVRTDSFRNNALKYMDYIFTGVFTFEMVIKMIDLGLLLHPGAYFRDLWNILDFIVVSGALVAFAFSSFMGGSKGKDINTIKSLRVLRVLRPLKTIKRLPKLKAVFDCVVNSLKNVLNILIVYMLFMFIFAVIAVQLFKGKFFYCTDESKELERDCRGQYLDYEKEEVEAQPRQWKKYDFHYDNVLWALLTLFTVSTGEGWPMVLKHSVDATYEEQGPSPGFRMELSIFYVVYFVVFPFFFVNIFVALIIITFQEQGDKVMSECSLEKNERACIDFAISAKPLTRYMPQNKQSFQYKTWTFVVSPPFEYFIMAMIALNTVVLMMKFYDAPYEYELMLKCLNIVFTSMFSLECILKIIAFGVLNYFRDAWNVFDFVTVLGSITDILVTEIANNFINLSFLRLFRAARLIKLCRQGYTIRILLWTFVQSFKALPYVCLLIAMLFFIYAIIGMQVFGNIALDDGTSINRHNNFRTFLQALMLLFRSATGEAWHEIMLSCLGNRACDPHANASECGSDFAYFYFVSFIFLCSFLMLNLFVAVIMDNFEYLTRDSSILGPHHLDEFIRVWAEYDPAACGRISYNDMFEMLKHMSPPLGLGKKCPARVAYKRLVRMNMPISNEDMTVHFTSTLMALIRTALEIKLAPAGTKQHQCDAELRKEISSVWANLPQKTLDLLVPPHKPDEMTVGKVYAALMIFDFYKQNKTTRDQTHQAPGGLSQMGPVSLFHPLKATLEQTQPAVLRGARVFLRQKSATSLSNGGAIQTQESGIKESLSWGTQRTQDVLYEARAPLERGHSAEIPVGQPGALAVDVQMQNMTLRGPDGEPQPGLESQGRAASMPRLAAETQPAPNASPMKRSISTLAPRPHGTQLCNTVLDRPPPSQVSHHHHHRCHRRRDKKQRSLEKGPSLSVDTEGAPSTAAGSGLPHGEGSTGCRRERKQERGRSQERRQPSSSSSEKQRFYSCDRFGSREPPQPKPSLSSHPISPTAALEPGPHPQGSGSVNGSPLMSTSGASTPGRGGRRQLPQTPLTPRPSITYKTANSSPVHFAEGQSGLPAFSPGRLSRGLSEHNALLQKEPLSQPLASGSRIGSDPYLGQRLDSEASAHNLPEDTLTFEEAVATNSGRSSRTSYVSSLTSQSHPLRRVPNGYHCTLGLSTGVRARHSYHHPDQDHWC

[5] = target: T3, GABA-B receptor (Homo sapiens) (UniProt Q9UBS5+O75899); test: Inhibition of human GABAB R1/R2 receptor expressed in HEK293 cells co-expressing human Cav2.2 alpha1B/alpha2delta1/beta3 channel assessed as inhibition of depolarization-activated Ba2+ current at 1 uM by whole cell patch clamp technique relative to control; type: cell-based
[6] = target: T2, Nicotinic acetylcholine receptor alpha9/alpha10 (Rattus norvegicus); test: as §1; type: cell-based
[7] = target: Voltage-dependent N-type calcium channel subunit alpha-1B (Rattus norvegicus) (UniProt Q02294); test: Inhibition of N-type Ca channel in Wistar rat DRG neuron at 100 nM by whole cell patch clamp technique relative to control
[8] = target: T3, GABA-B receptor (Homo sapiens); test: Inhibition of human GABAB R1/R2 receptor expressed in HEK293 cells co-expressing human Cav2.2 alpha1B/alpha2delta1/beta3 channel assessed as inhibition of depolarization-activated Ba2+ current at 200 nM by whole cell patch clamp technique relative to control; type: cell-based
[9] = target: T2, Nicotinic acetylcholine receptor alpha9/alpha10 (Rattus norvegicus); test: Inhibition of rat alpha9alpha10 nAChR expressed in Xenopus oocytes assessed as inhibition of Ach-evoked current at 30 uM after 5 mins by voltage-clamp technique; type: cell-based
[10] = target: T3, GABA-B receptor (Homo sapiens); test: Inhibition of human GABAB R1/R2 receptor expressed in HEK293 cells co-expressing human Cav2.2 alpha1B/alpha2delta1/beta3 channel assessed as inhibition of depolarization-activated Ba2+ current by whole cell patch clamp technique relative to control; type: cell-based
[11] = target: T3, GABA-B receptor (Homo sapiens); test: Inhibition of human GABAB R1/R2 receptor expressed in HEK293 cells co-expressing human Cav2.2 alpha1B/alpha2delta1/beta3 channel assessed as inhibition of depolarization-activated Ba2+ current at 1 uM followed by compound washout by whole cell patch clamp technique relative to control; type: cell-based
[12] = target: T3, GABA-B receptor (Homo sapiens); test: Inhibition of human GABAB R1/R2 receptor expressed in HEK293 cells co-expressing human Cav2.2 alpha1B/alpha2delta1/beta3 channel assessed as inhibition of depolarization-activated Ba2+ current depolarization-activated Ba2+ current at 50 uM by whole cell patch clamp technique relative to control; type: cell-based
[13] = target: T4, Voltage-dependent N-type calcium channel subunit alpha-1B/Voltage-dependent calcium channel subunit alpha-2/delta-1/Voltage-dependent L-type calcium channel subunit beta-3 (Homo sapiens) (UniProt P54289+Q00975+P54284); test: Inhibition of human GABAB R1/R2 receptor expressed in HEK293 cells co-expressing human Cav2.2 alpha1B/alpha2delta1/beta3 channel assessed as inhibition of depolarization-activated Ba2+ current at 50 uM followed by compound washout by whole cell patch clamp technique relative to control; type: cell-based
[14] = target: T4, Voltage-dependent N-type calcium channel subunit alpha-1B/Voltage-dependent calcium channel subunit alpha-2/delta-1/Voltage-dependent L-type calcium channel subunit beta-3 (Homo sapiens); test: Inhibition of human Cav2.2 alpha1B/alpha2delta1/beta3 channel expressed in HEK293 cells assessed as inhibition of depolarization-activated Ba2+ current at 1 uM by whole cell patch clamp technique relative to control; type: cell-based
[15] = Metabolic stability in human serum assessed as compound remaining at 3 mM after 1 hr by RP-HPLC analysis; type: ADME, cell-free; conditions: read-out: Stability
[16] = Metabolic stability in human serum assessed as compound remaining at 3 mM after 24 hrs by RP-HPLC analysis; type: ADME, cell-free; conditions: read-out: Stability
[17] = target: T1, Neuronal acetylcholine receptor subunit alpha-7; test: Inhibition of human alpha7 nAChR expressed in Xenopus oocytes assessed as inhibition of Ach-evoked current at 3 uM after 5 mins by voltage-clamp technique; type: cell-based

Row | SMILES | IC50 [1] [nM] | IC50 [2] [nM] | inhibition [3] [%] | inhibition [4] | inhibition [5] | inhibition [7] | inhibition [9] | other results
1 | N=C(N)NCCC[C@H](NC(=O)[C@@H]1C/C=C/C[C@@H]2NC(=O)[C@@H](NC(=O)CN)CSSC[C@H](NC(=O)[C@H](CCCNC(=N)N)NC(=O)[C@@H]3CCCN3C(=O)[C@H](CC(=O)O)NC(=O)[C@H](CO)NC2=O)C(=O)N[C@@H](CCCNC(=N)N)C(=O)N[C@@H](Cc2ccc(O)cc2)C(=O)N[C@@H](CCCNC(=N)N)C(=O)N1)C(=O)O (H-GC[AllylGly]SDPRCRYR[AllylGly]R-OH; disulfide 2-8; staple (E) 3-12) | 1150 | 3950 | 35.4 | inactive | inactive | – | – | –
2 | N=C(N)NCCC[C@H](NC(=O)[C@@H]1CSSC[C@@H]2NC(=O)[C@@H](NC(=O)CN)CSSC[C@H](NC(=O)[C@H](CCCNC(=N)N)NC(=O)[C@@H]3CCCN3C(=O)[C@H](CC(=O)O)NC(=O)[C@H](CO)NC2=O)C(=O)N[C@@H](CCCNC(=N)N)C(=O)N[C@@H](Cc2ccc(O)cc2)C(=O)N[C@@H](CCCNC(=N)N)C(=O)N1)C(=O)O | – | 3300 | – | – | – | 60.6% | – | inhibition [6]: Dose-dependent effect; inhibition [2]: Dose-dependent effect; inhibition [8]: 20%
3 | N=C(N)NCCC[C@H](NC(=O)[C@@H]1CSSC[C@@H]2NC(=O)[C@@H](NC(=O)CN)C/C=C/C[C@H](NC(=O)[C@H](CCCNC(=N)N)NC(=O)[C@@H]3CCCN3C(=O)[C@H](CC(=O)O)NC(=O)[C@H](CO)NC2=O)C(=O)N[C@@H](CCCNC(=N)N)C(=O)N[C@@H](Cc2ccc(O)cc2)C(=O)N[C@@H](CCCNC(=N)N)C(=O)N1)C(=O)O | – | – | – | – | – | Active | inactive | –
4 | N=C(N)NCCC[C@H](NC(=O)[C@@H]1CSSC[C@@H]2NC(=O)[C@@H](NC(=O)CN)C/C=C\C[C@H](NC(=O)[C@H](CCCNC(=N)N)NC(=O)[C@@H]3CCCN3C(=O)[C@H](CC(=O)O)NC(=O)[C@H](CO)NC2=O)C(=O)N[C@@H](CCCNC(=N)N)C(=O)N[C@@H](Cc2ccc(O)cc2)C(=O)N[C@@H](CCCNC(=N)N)C(=O)N1)C(=O)O | – | – | – | – | 35% | Active | inactive | inhibition [10]: Dose-dependent effect; inhibition [11]: Active; inhibition [12]: Active; inhibition [13]: inactive; inhibition [14]: inactive; remaining at 1 h, 3000 µM [15]: 30%; remaining at 24 h, 3000 µM [16]: 2%
5 | N=C(N)NCCC[C@H](NC(=O)[C@@H]1C/C=C\C[C@@H]2NC(=O)[C@@H](NC(=O)CN)CSSC[C@H](NC(=O)[C@H](CCCNC(=N)N)NC(=O)[C@@H]3CCCN3C(=O)[C@H](CC(=O)O)NC(=O)[C@H](CO)NC2=O)C(=O)N[C@@H](CCCNC(=N)N)C(=O)N[C@@H](Cc2ccc(O)cc2)C(=O)N[C@@H](CCCNC(=N)N)C(=O)N1)C(=O)O (H-GC[AllylGly]SDPRCRYR[AllylGly]R-OH; disulfide 2-8; staple (Z) 3-12) | 1470 | – | 31.5 | inactive | – | – | – | inhibition [17]: inactive

From ChEMBL document CHEMBL3352353, “Dicarba analogues of α-conotoxin RgIA. Structure, stability, and activity at potential pain targets” (J Med Chem, 2014)
